Laboratory results as given in publication PMC3010197 (Biochemistry, 2010).
“And” between values parts separate entries of the source, which are not always exact repeats. Equal entries are not always repeated. Where two headings read alike, the source gives them in different places. Values belong to the molecule of their own block, whether it stands above or below them.

How the values were obtained:
[1] = biological target: T1, BbNic (Borrelia burgdorferi nicotinamidase) (Borreliella burgdorferi, UniProt O50718); assay type: biochemical
[2] = biological target: T2, PfNic (Plasmodium falciparum nicotinamidase) (Plasmodium falciparum, UniProt O97284); assay type: biochemical
[3] = biological target: T3, Pnc1 (Saccharomyces cerevisiae nicotinamidase) (Saccharomyces cerevisiae, UniProt P53184); test: Substrate specificity: relative rates for nicotinamide analogues; assay type: biochemical
T3 sequence (P53184 1-216): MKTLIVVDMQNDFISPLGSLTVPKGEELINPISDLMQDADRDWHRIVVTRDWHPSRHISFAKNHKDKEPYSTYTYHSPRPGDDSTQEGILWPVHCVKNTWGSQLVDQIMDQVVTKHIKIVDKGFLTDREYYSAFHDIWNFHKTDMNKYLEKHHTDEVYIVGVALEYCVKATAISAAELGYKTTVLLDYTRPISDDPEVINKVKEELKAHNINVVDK

[4] = biological target: T4, SpNic (Streptococcus pneumoniae nicotinamidase) (Streptococcus pneumoniae, UniProt A0A0H2UR34); assay type: biochemical
[5] = biological target: T2, PfNic (Plasmodium falciparum nicotinamidase); test: biochemical
[6] = biological target: T3, Pnc1 (Saccharomyces cerevisiae nicotinamidase); test: Inhibition analysis, GDH coupled nicotinamidase assay; assay type: biochemical; settings: Km of nicotinamide over Ki of nicotinaldehyde
nicotinamidases = test: Class-wide statements for all nicotinamidases studied; assay type: biochemical
[7] = biological target: S. cerevisiae nicotinamidase; settings: reported as non-competitive; cited from earlier work
[8] = system: Bovine glutamate dehydrogenase (GDH); settings: GDH Km for NADPH; cited from earlier work
[9] = biological target: T1, BbNic (Borrelia burgdorferi nicotinamidase); test: Steady state kinetics of nicotinamide hydrolysis, HPLC assay; assay type: biochemical; settings: substrate nicotinamide, 100 mM phosphate pH 7.3
[10] = biological target: T4, SpNic (Streptococcus pneumoniae nicotinamidase); test: Steady state progress curve analysis, GDH coupled assay; assay type: biochemical; settings: substrate nicotinamide, 100 µM nicotinamide, pH 7.3
SPNic C136A mutant = test: Nicotinamidase catalytic rate of SpNic and mutants; assay type: biochemical, Streptococcus pneumoniae; settings: 200 µM NAM, 37 °C, HPLC assay
SPNic C136S mutant = test: Nicotinamidase catalytic rate of SpNic and mutants; assay type: biochemical, Streptococcus pneumoniae; settings: 200 µM NAM, 37 °C, HPLC assay
[11] = biological target: T3, Pnc1 (Saccharomyces cerevisiae nicotinamidase); test: Steady state progress curve analysis, GDH coupled assay; settings: substrate nicotinamide, 100 µM nicotinamide, pH 7.3
[12] = no reference given; cited from earlier work
Steady state analysis = substrate: NC(=O)c1cccnc1; test: Steady state analysis; assay type: biochemical, Caenorhabditis elegans; settings: other: substrate nicotinamide, initial rates, pH 7.3
[13] = footnote b: HPLC assay, 500 µM analogue, pH 7.3, 37 °C
[14] = footnote a: GDH coupled fluorescence assay, 500 µM analogue, pH 7.3

Molecule: COc1ccncc1C(N)=O [compound 7, 4-Methoxynicotinamide]
Relative rate (nicotinamide = 1.00) [1, 13]: 0.20 | Relative rate (nicotinamide = 1.00) [2, 13]: 0.12 | Relative rate (nicotinamide = 1.00) [3, 13]: 0.050 | Relative rate (nicotinamide = 1.00) [4, 13]: 0.065

Molecule: Cc1cncc(C(N)=O)c1 [compound 1, 5-methylnicotinamide]
Relative rate (nicotinamide = 1.00) [1, 14]: 0.51 | Relative rate (nicotinamide = 1.00) [2, 14]: 3.30 | Relative rate (nicotinamide = 1.00) [3, 14]: 0.80 | Relative rate (nicotinamide = 1.00) [4, 14]: 1.63

Molecule: NC(=O)c1ccc(N)nc1 [compound 6, 6-aminonicotinamide]
Relative rate (nicotinamide = 1.00) [2, 14]: 0.45 | Relative rate (nicotinamide = 1.00) [3, 14]: 0.20 | Relative rate (nicotinamide = 1.00) [4, 14]: 0.36

Molecule: O=Cc1cccnc1 [compound 16, nicotinaldehyde]
Ki [5]: 0.034 ± 0.007 µM | Km/Ki [6]: 7.6 | factor by which Ki is smaller than the Km for nicotinamide (nicotinamidases; across all enzymes studied except yeast pnc1): 91–3450 | mode of inhibition (double reciprocal plots) (nicotinamidases; versus nicotinamide, in all cases): competitive inhibition | Ki [7]: 68 µM

Molecule: C[n+]1ccc(C(N)=O)cc1 [compound 15, 1-methyl isonicotinamide]
Relative rate (nicotinamide = 1.00) [2, 13]: 0 | Relative rate (nicotinamide = 1.00) [3, 13]: 0 | Relative rate (nicotinamide = 1.00) [4, 13]: 0

Molecule: NC(=O)C1=CN([C@@H]2O[C@H](COP(=O)(O)OP(=O)(O)OC[C@H]3O[C@@H](n4cnc5c(N)ncnc54)[C@H](OP(=O)(O)O)[C@@H]3O)[C@@H](O)[C@H]2O)C=CC1 [NADPH, nicotinamide adenine dinucleotide phosphate reduced form]
Km [8]: 28 µM

Ki [5]: 0.023 ± 0.005 µM
Molecule: Cc1cncc(C=O)c1 [compound 19, 5-methylnicotinaldehyde]

Molecule: NC(=O)c1ccnc(N)c1 [compound 9, 2-Aminoisonicotinamide]
Relative rate (nicotinamide = 1.00) [2, 13]: 0 | Relative rate (nicotinamide = 1.00) [3, 13]: 0 | Relative rate (nicotinamide = 1.00) [4, 13]: 0

Molecule: COc1cncc(C(N)=O)c1 [compound 2, 5-Methoxynicotinamide]
Relative rate (nicotinamide = 1.00) [1, 13]: 2.21 | Relative rate (nicotinamide = 1.00) [2, 13]: 6.46 | Relative rate (nicotinamide = 1.00) [3, 13]: 2.06 | Relative rate (nicotinamide = 1.00) [4, 13]: 1.37

Molecule: NC(=O)c1ccncc1 [compound 8, isonicotinamide]
Relative rate (nicotinamide = 1.00) [2, 13]: 0 | Relative rate (nicotinamide = 1.00) [3, 13]: 0 | Relative rate (nicotinamide = 1.00) [4, 13]: 0

Molecule: COC(=O)c1cccnc1 [compound 11, methylnicotinate]
Relative rate (nicotinamide = 1.00) [2, 13]: 65.0 | Relative rate (nicotinamide = 1.00) ([2]; footnote b: HPLC assay, 500 µM analogue, pH 7.3, 37 °C, listed as methylnicotinate): 65 | steady state rate constant of turnover ([2]; methylnicotinate as substrate): 18 s⁻¹ | Relative rate (nicotinamide = 1.00) [3, 13]: 0.15 | Relative rate (nicotinamide = 1.00) [4, 13]: 0.035

Molecule: O=C(Oc1ccccc1)c1cccnc1 [compound 13, phenylnicotinate]
Relative rate (nicotinamide = 1.00) [2, 13]: 0.13 | Relative rate (nicotinamide = 1.00) [3, 13]: 0.031 | Relative rate (nicotinamide = 1.00) [4, 13]: 0.031

Molecule: NC(=O)c1cccnc1 [nicotinamide]
Km ([9]; Michaelis-Menten fit): 36.7 ± 7.5 µM | kcat ([9]; confirmed by HPLC assay): 0.0030 ± 0.0002 ^b s^−1 | kcat [10]: 2.1 s⁻¹ | Relative rate (nicotinamide = 1.00) ([1]; no method footnote): 1.00 | Relative rate (nicotinamide = 1.00) ([2]; no method footnote): 1.00 | Relative rate (nicotinamide = 1.00) ([3]; no method footnote): 1.00 | Relative rate (nicotinamide = 1.00) ([4]; no method footnote): 1.00 | Catalytic rate (kobs) (SPNic C136A mutant): < 10^−6 s^−1 | Catalytic rate (kobs) (SPNic C136S mutant): < 10^−6 s^−1 | kcat [11]: 3.8 s^−1 and 3.8 ± 0.1 ^b s^−1

Molecule: O=C(O)c1cccnc1 [nicotinic acid, reference compound]
effect on nicotinamidase rates (product inhibition) (nicotinamidases; nicotinic acid up to 500 µM, all enzymes, data not shown): do not vary | pKa [12]: ~3

Molecule: CCOC(=O)c1cccnc1 [compound 12, ethylnicotinate]
Relative rate (nicotinamide = 1.00) [2, 13]: 0.023 | Relative rate (nicotinamide = 1.00) [3, 13]: 0.044 | Relative rate (nicotinamide = 1.00) [4, 13]: 0.0086

Molecule: NC(=S)c1cccnc1 [compound 10, Thionicotinamide]
Relative rate (nicotinamide = 1.00) ([1]; no method footnote): 0 | Relative rate (nicotinamide = 1.00) ([2]; no method footnote): 0 | Relative rate (nicotinamide = 1.00) ([3]; no method footnote): 0.44 | Relative rate (nicotinamide = 1.00) ([4]; no method footnote): 0

Ki [5]: 10 µM
Molecule: CC(=O)c1cccnc1 [compound 24, acetylpyridine]

Molecule: Cc1ccc(C(N)=O)cn1 [compound 5, 6-methylnicotinamide]
Relative rate (nicotinamide = 1.00) [1, 14]: 0.45 | Relative rate (nicotinamide = 1.00) [2, 14]: 0.40 | Relative rate (nicotinamide = 1.00) [3, 14]: 0 | Relative rate (nicotinamide = 1.00) [4, 14]: 0.11

Molecule: NC(=O)c1cccnc1Cl [compound 3, 2-chloronicotinamide]
Relative rate (nicotinamide = 1.00) [1, 13]: 0 | Relative rate (nicotinamide = 1.00) [2, 13]: 0 | Relative rate (nicotinamide = 1.00) [3, 13]: 0 | Relative rate (nicotinamide = 1.00) [4, 13]: 0

Molecule: C[n+]1cccc(C(N)=O)c1 [compound 14, 1-Methylnicotinamide]
Relative rate (nicotinamide = 1.00) [2, 13]: 0 | Relative rate (nicotinamide = 1.00) [3, 13]: 0 | Relative rate (nicotinamide = 1.00) [4, 13]: 0

Molecule: N#Cc1cccnc1 [compound 23, 3-cyanopyridine]
Ki [5]: 1000 µM

Ki [5]: 4.9 µM
Molecule: O=Cc1ccc(F)nc1 [compound 21, 6-Fluoro-3-pyridinecarboxaldehyde]

Molecule: NC(=O)c1ccc(Cl)nc1 [compound 4, 6-chloronicotinamide]
Relative rate (nicotinamide = 1.00) [1, 13]: 0 | Relative rate (nicotinamide = 1.00) [2, 13]: 0 | Relative rate (nicotinamide = 1.00) [3, 13]: 0.17 | Relative rate (nicotinamide = 1.00) [4, 13]: 0.018

B1: CePNC1 (Caenorhabditis elegans nicotinamidase 1) (Caenorhabditis elegans) (protein)
chain: DNSATTNNNTILGNQSLEAIPEQLSELTGITVEESERIMESWLGNRQLDLRTSVLFDQEVLSRLRSLRVALLVVDFQNDFVDGSLKIGDGDAGQEPSSAITPLNELLQLSSWDLVVYTKDWHPHNHISFLSQAHNSDRVMDEKDENKTLGFFDSVQFLKPIKTEQVLYPDHCIQKSWGSDIHPEIYIADNAEYIMKGVDPYLDSYSAFNDNNGRSKTELEDLLRRENIDAVVIAGLAYDICVRFTCLDAVKQNFLAAVIPECSAGLTKKGIEESEMAFKKQGVAMISKDEARGITEGGFLPREWVQRIVKK
Km (Steady state analysis): 113 ± 11 µM | kcat (Steady state analysis): 3.1 ± 0.12 s⁻¹

B2: CePNC2 (Caenorhabditis elegans nicotinamidase 2) (Caenorhabditis elegans) (protein)
chain: MGVVQNEQDIREKMKNELISLVNEIDLIPELDRLLDDFIENKTWNEDTQELFTRVVLKPFTTLRTSLLVVDFQNDFVTGSLSIKEGDAEQDPLEALPHVNNLLENLNWNMIVYTQDWHPSNHISFFEHARNPDRELAPEDKSRKLRPFDIVRFVKPVSTIQVLYPSHCIQGGWGSQLHLGLQRIDGAHYIKKGADVYVDAYSAFSDNCGIKQSELEMLLRKNDINAVIGCGLAYDICVMHTLKDASKHGFLTCIVKSGSKGLSSLKMDEANKMFQKRGVAIIDDEMAQLISRREAFPIEWIRLLVHQAQSELHGKK
Km (Steady state analysis): 76 ± 10 µM | kcat (Steady state analysis): 0.28 ± 0.013 s⁻¹
